Experimental data taken from PubChem BioAssay (NCI).
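Exposure lasted 48 hours, with cells grown in 96-well plates and compounds tested at five concentrations. The concentration for 50% growth inhibition is given as GI50. TGI marks complete inhibition of growth.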

What was measured:
Experiment in all cases: inhibition of tumour cell growth, NCI panel, 48 h
786-0 renal = system: 786-0 renal
A549 NSCLC = system: A549 NSCLC
ACHN renal = system: ACHN renal
BT-549 breast = system: BT-549 breast
CAKI-1 renal = system: CAKI-1 renal
COLO 205 colon = system: COLO 205 colon
EKVX NSCLC = system: EKVX NSCLC
HCC-2998 colon = system: HCC-2998 colon
HCT-116 colon = system: HCT-116 colon
HCT-15 colon = system: HCT-15 colon
HL-60(TB) leukemia = system: HL-60(TB) leukemia
HOP-62 NSCLC = system: HOP-62 NSCLC
HOP-92 NSCLC = system: HOP-92 NSCLC
HS 578T breast = system: HS 578T breast
HT29 colon = system: HT29 colon
IGROV1 ovarian = system: IGROV1 ovarian
K-562 leukemia = system: K-562 leukemia
KM12 colon = system: KM12 colon
LOX IMVI melanoma = system: LOX IMVI melanoma
M14 melanoma = system: M14 melanoma
MALME-3M melanoma = system: MALME-3M melanoma
MCF7 breast = system: MCF7 breast
MDA-MB-231 breast = system: MDA-MB-231 breast
MDA-MB-435 = system: MDA-MB-435
MOLT-4 leukemia = system: MOLT-4 leukemia
NCI-H226 lung = system: NCI-H226 lung
NCI-H23 lung = system: NCI-H23 lung
NCI-H460 lung = system: NCI-H460 lung
NCI-H522 lung = system: NCI-H522 lung
NCI/ADR-RES ovarian = system: NCI/ADR-RES ovarian
OVCAR-4 ovarian = system: OVCAR-4 ovarian
OVCAR-5 ovarian = system: OVCAR-5 ovarian
OVCAR-8 ovarian = system: OVCAR-8 ovarian
PC-3 prostate = system: PC-3 prostate
RPMI-8226 leukemia = system: RPMI-8226 leukemia
RXF 393 renal = system: RXF 393 renal
SF-268 CNS = system: SF-268 CNS
SF-295 CNS = system: SF-295 CNS
SF-539 CNS = system: SF-539 CNS
SK-MEL-2 melanoma = system: SK-MEL-2 melanoma
SK-MEL-28 melanoma = system: SK-MEL-28 melanoma
SK-MEL-5 melanoma = system: SK-MEL-5 melanoma
SK-OV-3 ovarian = system: SK-OV-3 ovarian
SN12C renal = system: SN12C renal
SNB-19 CNS = system: SNB-19 CNS
SR leukemia = system: SR leukemia
SW-620 colon = system: SW-620 colon
TK-10 renal = system: TK-10 renal
U251 CNS = system: U251 CNS
UACC-257 melanoma = system: UACC-257 melanoma
UACC-62 melanoma = system: UACC-62 melanoma
UO-31 renal = system: UO-31 renal
A498 renal = system: A498 renal
CCRF-CEM leukemia = system: CCRF-CEM leukemia
DU-145 prostate = system: DU-145 prostate
OVCAR-3 ovarian = system: OVCAR-3 ovarian
SNB-75 CNS = system: SNB-75 CNS
T-47D breast = system: T-47D breast

## Oc1cccc(-c2cc(=S)ss2)c1
786-0 renal
  TGI: 36.2 µM
A549 NSCLC
  TGI: 44.5 µM
ACHN renal
  TGI: 30.1 µM
BT-549 breast
  TGI: 35.8 µM
CAKI-1 renal
  TGI: 45.7 µM
COLO 205 colon
  TGI: 35.6 µM
EKVX NSCLC
  TGI: 31.5 µM
HCC-2998 colon
  TGI: 32.4 µM
HCT-116 colon
  TGI: 33.3 µM
HCT-15 colon
  TGI: 31.4 µM
HL-60(TB) leukemia
  TGI: 48.5 µM
HOP-62 NSCLC
  TGI: 34.3 µM
HOP-92 NSCLC
  TGI: 28.5 µM
HS 578T breast
  TGI: 36.9 µM
HT29 colon
  TGI: 55.3 µM
IGROV1 ovarian
  TGI: 29.8 µM
K-562 leukemia
  TGI: 60.6 µM
KM12 colon
  TGI: 43 µM
LOX IMVI melanoma
  TGI: 33.3 µM
M14 melanoma
  TGI: 37.7 µM
MALME-3M melanoma
  TGI: 32.5 µM
MCF7 breast
  TGI: 27.5 µM
MDA-MB-231 breast
  TGI: 31.5 µM
MDA-MB-435
  TGI: 53.8 µM
MOLT-4 leukemia
  TGI: > 100 µM
NCI-H226 lung
  TGI: 41 µM
NCI-H23 lung
  TGI: 23.1 µM
NCI-H460 lung
  TGI: 32.8 µM
NCI-H522 lung
  TGI: 20.4 µM
NCI/ADR-RES ovarian
  TGI: 53.7 µM
OVCAR-4 ovarian
  TGI: 40.6 µM
OVCAR-5 ovarian
  TGI: 30.8 µM
OVCAR-8 ovarian
  TGI: 49.9 µM
PC-3 prostate
  TGI: 28.3 µM
RPMI-8226 leukemia
  TGI: 5.91 µM
RXF 393 renal
  TGI: 40.5 µM
SF-268 CNS
  TGI: 32.6 µM
SF-295 CNS
  TGI: 29.5 µM
SF-539 CNS
  TGI: 35 µM
SK-MEL-2 melanoma
  TGI: 30.5 µM
SK-MEL-28 melanoma
  TGI: 43.8 µM
SK-MEL-5 melanoma
  TGI: 19.7 µM
SK-OV-3 ovarian
  TGI: 37.7 µM
SN12C renal
  TGI: 36.5 µM
SNB-19 CNS
  TGI: 36.4 µM
SR leukemia
  TGI: 11.9 µM
SW-620 colon
  TGI: 44.3 µM
TK-10 renal
  TGI: 33.1 µM
U251 CNS
  TGI: 28.5 µM
UACC-257 melanoma
  TGI: 28.4 µM
UACC-62 melanoma
  TGI: 38.2 µM
UO-31 renal
  TGI: 28.5 µM

## Cc1c(Br)cccc1NC(=O)c1sc2nc3c(cc2c1N)CN(Cc1ccccc1)CC3
786-0 renal
  GI50: 256 nM
  TGI: 7.98 µM
A498 renal
  GI50: 186 nM
  TGI: 3.89 µM
A549 NSCLC
  GI50: 491 nM
  TGI: 19.6 µM
ACHN renal
  GI50: 444 nM
  TGI: 40 µM
BT-549 breast
  GI50: 708 nM
  TGI: 25.3 µM
CCRF-CEM leukemia
  GI50: 182 nM
  TGI: > 50 µM
DU-145 prostate
  GI50: 168 nM
  TGI: 2990 nM
EKVX NSCLC
  GI50: 359 nM
  TGI: > 50 µM
HCC-2998 colon
  GI50: 1600 nM
  TGI: > 50 µM
HCT-116 colon
  GI50: 182 nM
  TGI: 5.58 µM
HCT-15 colon
  GI50: 165 nM
  TGI: > 50 µM
HL-60(TB) leukemia
  GI50: 161 nM
  TGI: 0.456 µM
HOP-62 NSCLC
  GI50: 204 nM
  TGI: 4.44 µM
HOP-92 NSCLC
  GI50: 509 nM
  TGI: 10.7 µM
HS 578T breast
  GI50: 208 nM
  TGI: 15.4 µM
HT29 colon
  GI50: 179 nM
  TGI: 5.25 µM
IGROV1 ovarian
  GI50: 470 nM
  TGI: > 50 µM
KM12 colon
  GI50: 168 nM
  TGI: 10.2 µM
LOX IMVI melanoma
  GI50: 336 nM
  TGI: > 50 µM
M14 melanoma
  GI50: 107 nM
  TGI: 0.386 µM
MALME-3M melanoma
  GI50: 256 nM
  TGI: 6.04 µM
MCF7 breast
  GI50: 170 nM
  TGI: > 50 µM
MDA-MB-231 breast
  GI50: 531 nM
  TGI: 38.1 µM
MDA-MB-435
  GI50: 36.6 nM
  TGI: 0.141 µM
MOLT-4 leukemia
  GI50: 409 nM
  TGI: > 50 µM
NCI-H226 lung
  GI50: 1180 nM
  TGI: 18.9 µM
NCI-H23 lung
  GI50: 343 nM
  TGI: > 50 µM
NCI-H460 lung
  GI50: 191 nM
  TGI: 5.02 µM
NCI-H522 lung
  GI50: 108 nM
  TGI: > 50 µM
NCI/ADR-RES ovarian
  GI50: 136 nM
  TGI: 10.5 µM
OVCAR-3 ovarian
  GI50: 157 nM
  TGI: 773 nM
OVCAR-4 ovarian
  GI50: 523 nM
  TGI: 8.89 µM
OVCAR-5 ovarian
  GI50: 289 nM
  TGI: > 50 µM
OVCAR-8 ovarian
  GI50: 298 nM
  TGI: > 50 µM
PC-3 prostate
  GI50: 204 nM
  TGI: 22.4 µM
RXF 393 renal
  GI50: 123 nM
  TGI: 0.402 µM
SF-268 CNS
  GI50: 525 nM
  TGI: 27.2 µM
SF-295 CNS
  GI50: 129 nM
  TGI: 9.42 µM
SF-539 CNS
  GI50: 158 nM
  TGI: 0.858 µM
SK-MEL-2 melanoma
  GI50: 231 nM
  TGI: 15.1 µM
SK-MEL-28 melanoma
  GI50: 977 nM
  TGI: > 50 µM
SK-MEL-5 melanoma
  GI50: 201 nM
  TGI: 8.18 µM
SK-OV-3 ovarian
  GI50: 294 nM
  TGI: 22.7 µM
SN12C renal
  GI50: 384 nM
  TGI: > 50 µM
SNB-19 CNS
  GI50: 448 nM
  TGI: > 50 µM
SNB-75 CNS
  GI50: 280 nM
  TGI: 17.1 µM
SR leukemia
  GI50: 107 nM
  TGI: > 50 µM
SW-620 colon
  GI50: 164 nM
  TGI: 7.15 µM
T-47D breast
  GI50: 205 nM
  TGI: > 50 µM
TK-10 renal
  GI50: 1190 nM
  TGI: 16.1 µM
U251 CNS
  GI50: 242 nM
  TGI: 5.58 µM
UACC-257 melanoma
  GI50: 8.92 µM
  TGI: > 50 µM
UACC-62 melanoma
  GI50: 372 nM
  TGI: > 50 µM
UO-31 renal
  GI50: 412 nM
  TGI: > 50 µM
